Measurements as given in patent US4758572A, “Antiviral combinations” (Burroughs Wellcome Co., priority 1983, dated 1988).
Read-outs that look alike come from different tables or passages of the source.

Tested on: HSV type1 H29 Strain
Assay: Yield reduction assay with HSV type 1 H29 strain
Assay type: cell-based, herpes simplex virus type 1
Settings: read-out: ED50 (the source's name)
Description: (1) Examples of Mutual Enhancement of the Antiherpetic Activities of 2-Acetylpyridine-4-(2-morpholinoethyl)thiosemicarbazone (compound A) and Acyclovir (ACV).
^a Yield reduction assay with HSV type1 H29 Strain

EC50 (ACV with addition of 1 μM Compound A)	EC50 (Addition: none)	EC50 (Compound A with addition of 0.2 μM ACV)	Structure (SMILES)
20 nM	600 nM	–	Nc1nc2c(ncn2COCCO)c(=O)[nH]1 [ACV, 9-(2-hydroxyethoxymethyl)guanine]
–	5000 nM	700 nM	CC(=NNC(=S)NCCN1CCOCC1)c1ccccn1 [Compound A, 2-Acetylpyridine-4-(2-morpholinoethyl)thiosemicarbazone]
